Measured values: publication PMC8688152, “Distinct classes of potassium channels fused to GPCRs as electrical signaling biosensors” (Cell Reports Methods, 2021)

Tests used:
[1] = molecular target: unfused Kcv (Paramecium bursaria Chlorella virus 1, UniProt Q84568); assay: TEVC controls: unfused Kcv co-expressed with M2, and Kcv alone; format: cell-based; conditions: co-expression of unfused M2 and Kcv, and Kcv alone
Description: (§1) Microelectrodes were filled with […]. […] The membrane voltage was clamped to −50 mV.

[2] = test system: M2_Kir6.2-09-25; design: method as in Moreau et al., 2017; conditions: Kir6.2 ICCRs; ref Moreau et al., 2017; read-out: IC50 observed with Kir6.2 ICCRs; cited from earlier work
[3] = molecular target: T1, M2_T-00-46 (UniProt P08172+P97438); assay: TEVC recording of M2_T-00-46 ICCR in Xenopus oocytes; format: cell-based, human (M2), mouse (TREK-1); conditions: 91 mM K+, Vm = −50 mV, mean ± SEM
T1 construct: full-length (−00) or M2 deleted of its last nine residues (−09) in the indicated ICCRs; expressed in transfected cells; host or cells: Xenopus oocytes (mRNA injection); gene synthesized by GeneCust
Description: as §1

[4] = test system: Kir3.4T (Kir3.4(S143T)) co-expressed with M2_T constructs; assay: G protein activation assay: Kir3.4T co-expressed with M2_T ICCRs (TEVC); format: cell-based, Xenopus oocytes; conditions: 5 μM ACh
Description: as §1

[5] = molecular target: T2, I252T mutant of M2_T-00-40 (UniProt P08172+P97438, I267T); format: cell-based, human (M2), mouse (TREK-1)
T2 construct: full-length (−00) or M2 deleted of its last nine residues (−09) in the indicated ICCRs; expressed in transfected cells; host or cells: Xenopus oocytes (mRNA injection)
Description: (§2) Xenopus oocytes were prepared as previously reported ([Moreau et al., 2008]). Briefly, after surgical retrieval, the oocytes were defolliculated by type 1A collagenase. Each oocyte was injected with 50 nl of RNAse-free water containing the desired mRNAs. The mRNA quantities used per oocyte were: ICCR with Kcv, 2.7 ng (M2_Kcv and D2_Kcv) and 2.9 ng (OXTR_Kcv); ICCR with mTREK-1, 4.2 ng; ICCR with Kir6.2, 4.3 ng; M2, 2.3 ng; D2, 2.2 ng; Kir3.4T, 2.2 ng; Kcv 0.46 ng and mTREK-1, 2.1 ng. Microinjected oocytes were incubated 2 to 3 days at 19°C in modified-Barth's solution (in mM: 1 KCl, 0.82 MgSO4, 88 NaCl, 2.4 NaHCO3, 0.41 CaCl2, 16 HEPES, pH 7.4) supplemented with 100 U.ml^−1 of penicillin and streptomycin and 0.1 mg.mL^−1 of gentamycin. Animal handling and experiments fully conformed to European regulations and were approved by the French Ministry of Higher Education and Research (APAFIS#4420-2016030813053199 v4 to CM). […]
(§3) Two-electrode voltage-clamp (TEVC) recordings were performed automatically with HiClamp robots (MultiChannel Systems). […] Ligand effects were measured in high potassium concentration buffer with the membrane potential clamped to −50 mV and at 19°C.
(§4) Change of potassium current induced by ligand was calculated either with the barium-sensitive currents as a 0-reference for Kcv-based ICCRs or with the currents in ND96 for mTREK-1 ICCRs. […]

[6] = test system: I252T mutant of M2_T-00-40; format: cell-based, human (M2), mouse (TREK-1); conditions: ACh 5 μM; I252T versus WT M2_T-00-40
Description: as §2, §3, §4

[7] = molecular target: T3, M2_T(G293E)-00-40 (UniProt P08172+P97438, G308E); format: cell-based, human (M2), mouse (TREK-1); conditions: ACh 5 μM; TEVC, Xenopus oocytes; mean ± SEM
T3 construct: full-length (−00) or M2 deleted of its last nine residues (−09) in the indicated ICCRs; expressed in transfected cells; host or cells: Xenopus oocytes (mRNA injection)
Description: as §1

[8] = test system: M2[T4L]_T-00-43; assay: TEVC recording of G protein-uncoupled M2[T4L]_T-00-43; format: cell-based, human (M2), mouse (TREK-1); conditions: 5 μM ACh
Description: as §1

[9] = molecular target: T4, M2_T-09-43 (UniProt P08172+P97438); assay: TEVC recording of M2_T-09-43 in Xenopus oocytes; format: cell-based, human (M2), mouse (TREK-1); conditions: ACh 5 μM
T4 construct: expressed in transfected cells; host or cells: Xenopus oocytes (mRNA injection); gene synthesized by ATG:biosynthetics
Description: as §1

CC(=O)OCC[N+](C)(C)C [ACh, acetylcholine]
regulation of unfused Kcv by ACh [1]: absence of regulation
IC50 [2]: 1250 nM
activation: % of current change induced by ACh 5 μM on M2_T-00-46 [3]: 35.2% ± 1.6%
G protein activation (Kir3.4T) by M2_T-09-40 and -09-43 [4]: still able to activate Gi/o proteins
activation of Kir3.4T co-expressed with M2_T-00-37, −40, −43 and −46 ([4]; no significant differences between the four constructs): clear activation
activation induced by ACh on the I252T mutant of M2_T-00-40 [5]: 84.7% ± 11.2%
increase of ACh-induced activation of the I252T mutant compared with the WT counterpart [6]: more than 4 fold
activation induced by ACh on the hyperactive G293E mutant of M2_T-00-40 [7]: 32.5% ± 3.6%
activation of G protein-uncoupled M2[T4L]_T-00-43 by ACh [8]: still activated by ACh with the same amplitude as WT
regulation of M2_T-09-43 by ACh [9]: no significant regulation
